Source: patent US20110045101A1, “FUNGICIDAL SUBSTITUTED AZOLES” (E.I. Du Pont De Nemours and Company, priority 2009, published 2011)
Marks after values point to notes of the source that are not given here.

Legend:
Format in all cases: in vivo
Conditions in all cases: 100 = 100% disease control
Botrytis cinerea = assay: Test C: tomato Botrytis on tomato seedlings, sprayed the day before inoculation, visual disease rating
Summary of the method: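 Disease ratings refer to tomato seedlings treated by run-off spraying with compound suspensions, mostly 200 ppm (500 g/ha equivalent) and in marked cases 40 ppm. Carrier: acetone/purified water 50/50 with 250 ppm polyhydric alcohol ester surfactant, after predissolving in acetone.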

Alternaria solani = assay: Test D: tomato early blight, sprayed the day before inoculation, visual disease rating
Summary of the method: (§1)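 Acetone solution (3% of final volume) of each compound is suspended in 50/50 acetone/water with 250 ppm Trem® 014. Plants are sprayed to run-off at 200 ppm, equivalent to 500 g/ha, or at 40 ppm for starred values.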

Septoria nodorum = assay: Test F: wheat glume blotch on wheat seedlings, sprayed the day before inoculation, visual disease rating
Summary of the method: as §1

Septoria tritici = assay: Test G: wheat leaf blotch on wheat seedlings, sprayed the day before inoculation, visual disease rating
Summary of the method: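 Wheat seedlings were sprayed to run-off with test suspension (acetone/water plus surfactant), generally 200 ppm (≈500 g/ha), or 40 ppm where marked. Septoria tritici spores were inoculated the next day; plants were held 48 h at 24°C in saturated atmosphere, then 19 days at 20°C before visual disease rating.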

[1] = tested on: Puccinia recondita f. sp. tritici; assay: Test H: wheat leaf rust, test suspension sprayed after inoculation of wheat seedlings, visual disease rating
Summary of the method: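 Wheat seedlings inoculated with P. recondita spores, held 24 h saturated at 20 °C, then 2 days in growth chamber at 20 °C; compound suspension (acetone/water with Trem 014) sprayed to run-off afterwards. Rated visually; 200 ppm (≈500 g/ha) unless marked *, which denotes 40 ppm.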

[2] = tested on: Puccinia recondita f. sp. tritici; assay: Test I: wheat leaf rust on wheat seedlings, sprayed the day before inoculation, visual disease rating
Summary of the method: as §1

[3] = tested on: Erysiphe graminis f. sp. tritici; assay: Test J: wheat powdery mildew on wheat seedlings, sprayed the day before inoculation, visual disease rating
Summary of the method: as §1

[4] = 200 ppm, 0 = no control relative to controls
[5] = 40 ppm (marked *), 0 = no control

Row | SMILES | Test C disease control rating (Botrytis cinerea; [4]) [%] | Test D disease control rating (Alternaria solani; [4]) [%] | Test F disease control rating (Septoria nodorum; [4]) [%] | Test G disease control rating (Septoria tritici; [4]) [%] | Test H disease control rating [1, 4] [%] | Test I disease control rating [2, 4] [%] | Test J disease control rating [3, 4] [%] | Test C disease control rating (Botrytis cinerea; [5]) | Test D disease control rating (Alternaria solani; [5]) | Test F disease control rating (Septoria nodorum; [5]) | Test G disease control rating (Septoria tritici; [5]) | Test H disease control rating [1, 5] | Test I disease control rating [2, 5] | Test J disease control rating [3, 5]
1 | COc1ccc(F)c(-c2c(Cl)nc(C)n2-c2ccc(Cl)c(F)c2)c1F [compound 393] | 99 | 100 | 99 | 95 | 79 | 99 | 100 |  |  |  |  |  |  | 
2 | Cn1c(-c2cnc(Cl)n2-c2ccc(Cl)cc2)nc(Cl)c1Br [compound 394] |  |  |  |  |  |  |  | 3* % | 0* % | 0* % | 28* % | 0* % | 45* % | 0* %
3 | COc1cc(F)c(-n2c(Cl)nc(C)c2-c2ccc(Cl)cc2)c(F)c1 [compound 396] |  |  |  |  |  |  |  | 100* % | 100* % | 99* % | 93* % | 0* % | 100* % | 99* %
4 | COc1cc(F)c(-n2c(Cl)nc(CCl)c2-c2ccc(Cl)cc2)c(F)c1 [compound 397] |  |  |  |  |  |  |  | 100* % | 98* % | 0* % | 94* % | 0* % | 88* % | 13* %
5 | CCc1cccc(-n2c(Br)nc(Cl)c2-c2c(F)ccc(OC)c2F)c1 [compound 398] | 100 | 80 | 79 | 96 | 0 | 79 | 100 |  |  |  |  |  |  | 
6 | COc1ccc(F)c(-c2c(Cl)nc(Cl)n2-c2ccc(Cl)c(C)c2)c1F [compound 399] | 100 | 99 | 82 | 96 | 0 | 82 | 100 |  |  |  |  |  |  | 
7 | COc1ccc(F)c(-c2c(Cl)nc(Cl)n2-c2cccc(OC(F)F)c2)c1F [compound 400] | 100 | 100 | 99 | 94 | 0 | 99 | 100 |  |  |  |  |  |  | 
8 | COc1ccc(F)c(-c2c(Cl)nc(Br)n2-c2ccc(Cl)c(C)c2)c1F [compound 401] | 99 | 100 | 0 | 96 | 0 | 73 | 100 |  |  |  |  |  |  | 
9 | COc1ccc(F)c(-c2c(Cl)nc(Br)n2-c2cccc(OC(F)F)c2)c1F [compound 402] | 100 | 100 | 99 | 96 | 0 | 94 | 99 |  |  |  |  |  |  | 
10 | Cc1ncc(Cc2ccc(F)cc2F)n1-c1ccc(Cl)cc1 [compound 403] | 99 | 0 | 0 | 97 | 0 | 77 | 86 |  |  |  |  |  |  | 
11 | Cc1nc(Br)c(Cc2ccc(F)cc2F)n1-c1ccc(Cl)cc1 [compound 404] | 100 | 0 | 0 | 99 | 0 | 97 | 98 |  |  |  |  |  |  | 
12 | COc1cc(F)c(-c2c(Cl)nc(Cl)n2-c2ccc(C)cc2)c(F)c1Cl [compound 405] | 99 | 98 | 0 | 100 | 0 | 98 | 99 |  |  |  |  |  |  | 
13 | COc1cc(F)c(-c2c(Cl)nc(Cl)n2-c2ccc(Cl)nc2)c(F)c1 [compound 406] | 100 | 100 | 100 | 93 | 100 | 100 | 100 |  |  |  |  |  |  | 
14 | N#Cc1ccc(F)c(-c2c(Cl)nc(Cl)n2-c2ccc(Cl)cc2)c1F [compound 407] | 100 | 0 | 92 | 96 | 0 | 97 | 98 |  |  |  |  |  |  | 
15 | CSc1sc(-c2c(Br)nc(Br)n2-c2ccc(Cl)cc2)cc1Br [compound 408] |  |  |  |  |  |  |  | 0* % | 0* % | 0* % | 3* % | 0* % | 0* % | 0* %
16 | Fc1cc(-n2cnc(Br)c2-c2c(F)ccc(F)c2Cl)ccc1Cl [compound 409] | 100 | 9 | 0 | 100 | 0 | 96 | 98 |  |  |  |  |  |  | 
17 | Cc1ccc(-n2cnc(Br)c2-c2c(F)ccc(F)c2Cl)cc1 [compound 410] | 98 | 99 | 0 | 100 | 0 | 99 | 100 |  |  |  |  |  |  | 
18 | Cc1ccc(-n2cnc(Br)c2-c2c(F)ccc(F)c2F)cc1 [compound 411] | 100 | 100 | 0 | 99 | 0 | 99 | 100 |  |  |  |  |  |  | 
19 | Cc1nc(Cl)n(-c2ccc(Cl)cc2)c1-c1c(F)ccc(F)c1F [compound 412] |  |  |  |  |  |  |  | 100* % | 100* % | 0* % | 99* % | 0* % | 74* % | 99* %
20 | Cc1nc(Cl)n(-c2ccc(F)cc2)c1-c1c(F)ccc(F)c1F [compound 413] |  |  |  |  |  |  |  | 100* % | 99* % | 0* % | 14* % | 9* % | 0* % | 0* %
21 | Cc1nc(Cl)n(-c2ccc(Cl)cc2)c1-c1c(F)ccc(F)c1Cl [compound 414] |  |  |  |  |  |  |  | 99* % | 99* % | 0* % | 96* % | 0* % | 93* % | 100* %
22 | Cc1nc(C)n(-c2ccc(Cl)c(F)c2)c1-c1c(F)ccc(F)c1F [compound 415] |  |  |  |  |  |  |  | 100* % | 100* % | 0* % | 99* % | 0* % | 94* % | 98* %
23 | Cc1nc(C)n(-c2ccc(Cl)cc2)c1-c1c(F)ccc(F)c1F [compound 416] |  |  |  |  |  |  |  | 100* % | 100* % | 0* % | 97* % | 0* % | 26* % | 99* %
24 | Cc1nc(C)n(-c2ccc(F)cc2)c1-c1c(F)ccc(F)c1F [compound 417] |  |  |  |  |  |  |  | 100* % | 99* % | 0* % | 89* % | 9* % | 9* % | 94* %
25 | CCc1cccc(-n2c(C)nc(Cl)c2-c2c(F)ccc(OC)c2F)c1 [compound 418] | 100 | 100 | 99 | 100 | 0 | 97 | 100 |  |  |  |  |  |  | 
